The values below come from US9067960B2, “Hybrid SCFA-hydroxyl-derivatized monosaccharides, methods of synthesis, and methods of treating disorders” (The Johns Hopkins University, priority 2007, dated 2015).

For series [1], the system named is Jurkat cells. Kind of series: Surface expression of Sia5Lev: ketone-bearing sialosides by biotin hydrazide, FITC-avidin, flow cytometry. Type of series: cell-based, human.
Series [2] deals with Jurkat cells. Kind of series: Toxicity and growth inhibition assays (cell counts, days 3-15). The series is classed as cell-based, human. The procedure:
Solutions of the analogs in EtOH (10 mM stock) are coated onto 24-well plates at a range of concentrations from 0-320 μM and ethanol is allowed to evaporate. Jurkat cells (1.0×10^5 cells) in 0.5 mL of medium are plated in each well (day 0). On days 3 and 5, fresh medium (1.0 mL) is added to each well. Cell cultures are mixed by gentle pipetting and 100 μL of cell suspension are taken from each well and counted. On days 7, 9, 11, 13 and 15, 1.0 mL of cell suspension is removed from each well after thorough mixing and fresh medium (1.0 mL) is added. Cells are counted on day 15 and the cell density is plotted as a percentage of control.
In initial assays, Jurkat (human T-lymphoma) cells are incubated with compounds of the invention and growth rates were monitored. The compounds reduce cell proliferation at early time points (days 3 & 5) in a dose dependent manner.

Series [3] in a line: Toxicity of MOE analogs. Type of series: cell-based.
The subject of series [4] is stem cells. As to the kind of experiment: Control of stem cell fate. The series is classed as cell-based, human. The source says: The combination of the biological activities SCFA- and sugar activities of compounds (such as Bu4ManNAc or l(OH)But3ManNAc is useful for cancer treatment because each of the biological activities of the hybrid molecule have been designed to work in concert against a particular characteristic of cancer. An equally valuable aspect of the current invention, however, is ability to separate the various biological activities of the hybrid molecules—for example it is now possible to maintain flux through a glycosylation pathway and to simultaneously avoid or minimize SCFA effects such as toxicity or changes to gene expression that affect the cellular phenotype under investigation (see FIG. 10). This ability opens the door to the many scenarios where an SCFA is attached to a core sugar towards the sole purpose of increasing the metabolic efficiency of the sugar without triggering biological activities of the SCFA moiety. In this case, non-natural monosaccharide analogs would transit the glycosylation pathways without eliciting unrelated changes to proliferation, apoptosis, or gene expression that would either confound interpretation of the experiment under way or actually lead to deleterious cellular outcomes. […]

Series [5] concerns transformed cells. Particulars: cited from earlier work.
Series [6] has as its system human cancer cells. As to the kind of experiment: Killing of cancer cells by SCFA-hexosamine hybrid molecules (apoptosis, growth). The series is classed as cell-based. From the text: ManNAc has several attractive features that led us to select it as an hexosamine for use in butyrate-sugar hybrid drug development. First, it is a committed precursor for the sialic acid biosynthetic pathway and has no other known metabolic roles, thereby allowing a specific and unique biochemical pathway to be targeted. Second, uptake of exogenous ManNAc alters flux through the sialic acid biosynthetic pathway and changes sialyltransferase and sialidase activity thereby altering the display of sialic acid on cell surface glycoproteins and glycolipids. Because these sialoglycans modulate apoptosis, it was hypothesized that an n-butyrate prodrug with ManNAc as an active carrier would both “arrest” and “execute” cancer cells via SCFA-mediated cell cycle inhibition and ManNAc-augmented apoptosis, respectively. […]
Jurkat cells (5.0×10^5 per mL) are incubated with PBS and a compound of the invention at […]. After 48 h, the cells are counted, harvested, washed once in fresh medium and plated in a 24-well plate containing various concentrations of sodium butyrate (0-2.0 mM; a stock solution of 200 mM in PBS was used for dilutions and control samples). Cell cultures are maintained and growth is monitored for 15 days as described above under the toxicity and growth inhibition assays. […]

In series [7] the test system is histone deacetylase. Kind of series: HDAC inhibitor (SCFA) activity of sugar-delivered butyrate. Type of series: cell-based. The source says: In this section, we present evidence for the first aspect of our model to describe the bioactivity of the compounds of the invention against cancer cells—namely that sugar-delivered butyrate acts as an HDACi—by a set of three complementary assays. […] Together, these assays provide convincing proof that sugar-delivery n-butyrate retains its characteristic SCFA bioactivity.

Series [8] relates to sialic acid biosynthesis. Kind of series: Total sialic acid production (periodate-resorcinol assay). Type of series: cell-based. As for the experimental part:
Jurkat cells (5.0×10^6 cells in 10 mL medium) are incubated a compound of the invention at various concentrations. After three days, the cells (1.0×10^6 cells per sample) are lysed by freeze-thaw cycles (three times). The cell lysates are analyzed by using an adapted version of the periodate-resorcinol assay with the periodic acid oxidation step performed on ice to allow quantification of total (i.e., free monosaccharide plus glycoconjugate-bound) sialic acid. For each assay, a standard curve is obtained using N-acetylneuraminic acid (Pfanstiehl, Waukegan, Ill.) for calibration.

Entries after “also recorded” stand apart in the source; their conditions may differ.

In the case of `CCCC(=O)OC1O[C@H](CO)[C@@H](OC(=O)CCC)[C@H](OC(=O)CCC)[C@@H]1NC(=O)CCC(C)=O` (stereo partly drawn) [compound 13, 1,3,4-tri-O-butanoyl-2-deoxy-2-(4-oxopentanoyl)amino-α,β-D-mannopyranose], the “Surface detection of ketone-bearing sialosides (cell surface ketone labeling)” value in series [1] was “even more efficient at providing cell surface ketone labeling”. For the same compound, the “Growth inhibition after 3 days” value in series [2] is on record as “significantly less inhibitory”.
On to `CCCC(=O)OC1O[C@H](CO)[C@@H](OC(=O)CCC)[C@H](OC(=O)CCC)[C@@H]1NC(C)=O` (some centres unmarked) [6(OH)But3ManNAc, 1,3,4-O-Bu3ManNAc], for which the toxicity entry in series [3] was “avoiding toxicity”.
As to `CC(=O)OCC1OC(OC(C)=O)C(NC(=O)CSC(C)=O)C(OC(C)=O)C1OC(C)=O` (centres unmarked) [Ac5ManNTGc], in series [3], the toxicity result is on record as “considerable toxicity”. Moreover, the “fate of stem cells” value in series [4] is on record as “can control the fate of stem cells”.
As to `CCCC(=O)O.COc1cccc(C#CCON=C2CN3CCC2C3)c1` (centres unmarked) [n-Butyrate, n-butyrate], in series [5], the “levels needed for bioactivity” value is recorded as “up to 50 mM”.
In the case of `CC(=O)OCC(=O)N[C@@H]1C(OC(C)=O)O[C@H](COC(C)=O)[C@@H](OC(C)=O)[C@@H]1OC(C)=O` (some centres unmarked) [Ac5ManNGc], in series [3], the toxicity entry is listed as “considerable toxicity”.
Consider `CCCC(=O)OCC1OC(OC(=O)CCC)C(NC(C)=O)[C@@H](OC(=O)CCC)[C@@H]1OC(=O)CCC` (some centres unmarked) [Bu4ManNAc], for which, in series [6], the cell killing result is listed as “ultimately killed the cells” and the induction of apoptosis entry was “gains a unique ability to induce apoptosis; also recorded: efficiently induced apoptosis”. Moreover, in series [7], the “function as histone deacetylase inhibitor (HDACi)” value was “functioning as an HDACi”. Also, the sialic acid biosynthesis entry in series [8] is given as “activates sialic acid biosynthesis; also recorded: primes sialic acid biosynthesis”.
